Experimental data: US7829331B2, “Use of urea-adjuvated polypeptides for diagnosis, prophylaxis and treatment” (priority 2002, dated 2010)

How the values were obtained:
rabbit = assay: Immunisation of a rabbit with urea-adjuvated BZLF1 polypeptide, serum tested in the immunoblot; assay type: in vivo; conditions: intramuscular, 8M urea
Procedure: In order to test the suitability of urea-adjuvated BZLF-1 polypeptide, 30 μg of BZLF1 polypeptide in 8M urea was adjuvated with Hunters Titermax as specified by the manufacturer (Sigma) and administered intramuscularly to a rabbit. The animal was re-immunised with the same immunogen 4 and 8 week as after the basic immunisation. After a further 3 weeks, blood was taken from the animal and the serum obtained therefrom was tested in different dilutions (1:2000; 1:10000 and 1:50000) in the immunoblot for the presence of BZLF1 specific antibodies. For this purpose BZLF1 polypeptide produced recombinantly in E. coli in various concentrations (20 ng, 100 ng and 500 ng) was separated in a 12.5% SDS gel and the proteins were then transferred onto nitrocellulose. After the protein transfer the still-free protein binding sites on the nitrocellulose were saturated by incubating with a 5% solution of skimmed milk powder in TBS (500 mM NaCl, 25 mM Tris pH 7.5), shaking slightly. The Blot was then washed four times with TTBS for at least 10 min before it was incubated for 1 to 12 hours with the corresponding dilution of the rabbit serum in TBS. […]

PBMC [1] = assay: IFN-γ ELIspot of PBMC incubated with urea; assay type: cell-based, human; conditions: 24 hours; for IFN-γ secretion from PBMCs: donor one
Procedure: Furthermore, it should be clarified by ELIspot analyses whether urea in populations of purified PBMCs triggers the secretion of cytokines, especially IFN-γ. For this purpose, 96-well nitrocellulose-coated microtitre plates, as described in detail in Example 2, were coated with a monoclonal anti-human IFN-γ antibody (Hölzl, Cologne) (5 μg/ml in PBS) and incubated overnight at 4° C. The antibody solution was pipetted off and the plates were washed four times using 200 μl PBS/formulation in each case. In a following step non-specific binding sites were blocked by adding 200 μl of blocking medium in each case (RPMI with 10% FCS) during a one-hour incubation at 37° C.
PBMC of a healthy donor ([…]) were taken up in a concentration of respectively 2×10^5 purified PBMC/150 μL in T-cell medium containing different urea concentrations (0, 0.05, 0.1, 0.2, 0.3, 0.4, 0.8, and 1.6 mol/liter) (5 replicates each) and the stimulation formulations were incubated for 24 hours in an incubator with a humidified atmosphere with 5% CO2 gassing at 37° C. An 8M urea stock solution which was mixed with 2M NaCl and 2 mM DTE was used for these experiments. The cell suspension was then drawn off and any cells still adhering were removed by washing six times (in each case 200 μl PBS with 0.1% Tween 20, 3 min incubation with washing buffer in each case). The secondary biotinylated antibody (1 μg/ml in PBS, 100 μl/formulation in each case) was then added; the plates were incubated for 2 hours at RT, then washed (6 times, 200 μl PBS/formulation in each case) and incubated for 1 hour with a streptavidin alkaline phosphatase (AP) conjugate (1 μg/ml in PBS; 100 μl/formulation in each case; Hölzl, Cologne). After a last washing step (6 times 200 μl PBS/formulation in each case), the colour reaction took place by adding the enzyme substrate NBT/BCIP (Boehringer, Mannheim). For this purpose a staining solution was prepared [200 μl NBT/BCIP-stock solution to 10 ml staining buffer (0.1 M tris-buffer, pH 9.5 with 0.05 M MgCl2, 0.1 M NaCl)] and 100 μl/formulation was used in each case.
After 10 min the calorimetric reaction was stopped by washing the plates with deionised water (Biosys 2000, BioSys, Karben).

PBMC [2] = assay: Influence of urea on the vitality of PBMC (Trypan blue counting); assay type: cell-based
Procedure: In order to test the influence of urea on the cell vitality, PBMC, as described in Example 2, were purified from the heparinised whole blood of 3 healthy donors ([…]) and respectively 1×10^6 cells in four replicates in T-cell medium (RPMI 1640 with 5% human serum, 2 mM glutamine and 100 U/ml penicillin/100 μg/ml streptomycin (all components from PanSystems, Aidenbach)) was mixed with increasing concentrations of urea (0, 0.05, 0.1, 0.2, 0.3, 0.4, 0.8 or 1.6 mol/liter) and incubated in wells of a 48-well microtitre plate for 17 hours in an incubator with humidified atmosphere and 5% CO2 gassing at 37° C. An 8M urea stock solution which was mixed with 2M NaCl and 2 mM DTE was used for these experiments. The cells were then resuspended in the cultivation formulation by repeatedly pipetting the medium on and off and the total number of cells and the ratio of the living to dead cells was determined using a Neubauer “improved” counting chamber after staining with a Trypan blue solution (0.5% w/v).

NC(N)=O [urea]
toxicity of the urea contained in the injection solution for the experimental animal (rabbit): non-toxic | IFN-γ secretion from PBMCs (PBMC [1]; urea 0.05 mol/liter): 26.2 Spots/2 × 10^6 cells | IFN-γ secretion from PBMCs (PBMC [1]; urea 0.1 mol/liter): 29.6 Spots/2 × 10^6 cells | IFN-γ secretion from PBMCs (PBMC [1]; urea 0.2 mol/liter): 26.4 Spots/2 × 10^6 cells | IFN-γ secretion from PBMCs (PBMC [1]; urea 0.3 mol/liter): 11.0 Spots/2 × 10^6 cells | IFN-γ secretion from PBMCs (PBMC [1]; urea 0.4 mol/liter): 18.2 Spots/2 × 10^6 cells | IFN-γ secretion from PBMCs (PBMC [1]; urea 0.8 mol/liter): 14.6 Spots/2 × 10^6 cells | IFN-γ secretion from PBMCs (PBMC [1]; urea 1.6 mol/liter): 13.4 Spots/2 × 10^6 cells | release of IFN-γ from cultures of peripheral blood mononuclear cells (PBMC [1]; urea 0.05 to 1.6 mol/liter): no significantly increased release of IFN-γ | number of dead cells (PBMC [2]): significantly increased number of dead cells | Living/dead (PBMC [2]; donor one, urea 0.05 mol/liter, 17 hours): 2.2 | Living/dead (PBMC [2]; donor one, urea 0.1 mol/liter, 17 hours): 55 | Living/dead (PBMC [2]; donor one, urea 0.2 mol/liter, 17 hours): 3.6 | Living/dead (PBMC [2]; donor one, urea 0.3 mol/liter, 17 hours): 1.8 | Living/dead (PBMC [2]; donor one, urea 0.4 mol/liter, 17 hours): 0.2 | Living/dead (PBMC [2]; donor one, urea 0.8 mol/liter, 17 hours): 0.04 | Living/dead (PBMC [2]; donor one, urea 1.6 mol/liter, 17 hours, 0 = exclusively dead cells): 0 | Living/dead (PBMC [2]; donor three, urea 0.05 mol/liter, 17 hours): 11.7 | Living/dead (PBMC [2]; donor three, urea 0.1 mol/liter, 17 hours): 41.3 | Living/dead (PBMC [2]; donor three, urea 0.2 mol/liter, 17 hours): 30.2 | Living/dead (PBMC [2]; donor three, urea 0.3 mol/liter, 17 hours): 9 | Living/dead (PBMC [2]; donor three, urea 0.4 mol/liter, 17 hours): 0.2 | Living/dead (PBMC [2]; donor three, urea 0.8 mol/liter, 17 hours): 0.02 | Living/dead (PBMC [2]; donor three, urea 1.6 mol/liter, 17 hours, 0 = exclusively dead cells): 0 | Living/dead (PBMC [2]; donor two, urea 0.05 mol/liter, 17 hours): 15.9 | Living/dead (PBMC [2]; donor two, urea 0.1 mol/liter, 17 hours): 1.7 | Living/dead (PBMC [2]; donor two, urea 0.2 mol/liter, 17 hours): 6.6 | Living/dead (PBMC [2]; donor two, urea 0.4 mol/liter, 17 hours): 1 | Living/dead (PBMC [2]; donor two, urea 0.8 mol/liter, 17 hours): 0.1 | Living/dead (PBMC [2]; donor two, urea 1.6 mol/liter, 17 hours): 0.06 | dead versus living cells in the PBMC cultures (PBMC [2]; from a urea concentration of 0.4 mol/liter, 17 hours, regardless of the donor): more dead than living cells | ratio of living to dead cells compared to the untreated cells (PBMC [2]; urea 0 to 0.2 mol/liter, 17 hours): no significant reduction | total number of cells (cytolytic effect) (PBMC [2]; urea concentrations above 0.3 mol/liter, 17 hours): significant reduction in the total number of cells
